In patent publication US7488592B2, “Human protein acyl transferases and methods of uses therefor” (Washington University, priority 2003, dated 2009):
Each block holds one molecule with its values, some of them ahead of it.

Experiments:
[1] = molecular target: T1, yeast Erf2p/Erf4p (Saccharomyces cerevisiae, UniProt Q06551); test: Ras PAT assay: [3H]palmitate incorporation into GST-Ras(HV)CCaaX by partially purified Erf2p/Erf4p, with competitor or inhibitor; format: biochemical, S. cerevisiae; settings: 0.5 μM [3H]palmitoyl-CoA; for effectiveness as competitor of the radioactive Ras PAT reaction (in words): unlabeled acyl-CoA at concentrations similar to 8 μM, FIG. 17
T1 construct: made in house; host or cells: S. cerevisiae RJY543 (galactose-induced)
T1 sequence (Q06551 1-359): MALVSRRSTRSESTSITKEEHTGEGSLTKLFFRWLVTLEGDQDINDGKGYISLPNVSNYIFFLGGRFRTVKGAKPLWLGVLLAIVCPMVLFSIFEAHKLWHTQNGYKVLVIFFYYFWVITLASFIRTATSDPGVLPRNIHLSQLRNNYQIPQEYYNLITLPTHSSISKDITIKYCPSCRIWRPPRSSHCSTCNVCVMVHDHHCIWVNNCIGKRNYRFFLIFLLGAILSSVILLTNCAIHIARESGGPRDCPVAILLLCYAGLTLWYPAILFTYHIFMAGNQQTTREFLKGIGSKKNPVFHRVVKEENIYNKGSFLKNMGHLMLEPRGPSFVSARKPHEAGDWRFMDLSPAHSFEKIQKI
T1 sequence (P41912 1-237 partner): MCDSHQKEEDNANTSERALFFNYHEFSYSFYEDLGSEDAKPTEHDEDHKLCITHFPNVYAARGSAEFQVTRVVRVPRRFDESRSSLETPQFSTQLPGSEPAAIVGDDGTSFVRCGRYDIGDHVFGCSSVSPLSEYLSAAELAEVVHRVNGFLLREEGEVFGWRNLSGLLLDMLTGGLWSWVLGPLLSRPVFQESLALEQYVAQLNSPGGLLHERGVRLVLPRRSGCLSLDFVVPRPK
Method: FIG. 17—Concentration dependent inhibition of yeast PAT activity by acyl-CoAs. Partially purified yeast Erf2p/Erf4p was assayed for PAT activity in the presence of 0.5 μM [^3H]palmitoyl-CoA and the indicated concentrations of unlabeled acyl-CoA substrates as indicated: decanoyl-CoA (C10:0), lauroyl-CoA (C12:0), myristoyl-CoA (C14:0), palmitoyl-CoA (C16:0), palmitoleoyl-CoA (C16:1), stearoyl-CoA (C18:0), and oleoyl-CoA (C18:1). Radiolabeled palmitoylated GST-Ras(HV)CCaaX was excised from the gel and quantitated. Results are expressed as a percent of Ras PAT activity in the absence of competitor (100%).
FIG. 18—Inhibition of Erf2p/Erf4p-dependent PAT by 2-bromopalmitate. Partially purified Erf2p/Erf4p was assayed for palmitoyltransferase activity using GST-Ras(HV)CCaaX (1.33 μM) and 0.5 μM [^3H]palmitoyl-CoA as substrate. Radiolabeled palmitoylated GST-Ras(HV)CCaaX was excised from the gel and quantitated. Results are expressed as a percent of Ras PAT activity in the absence of competitor (100%).
Ras PAT Assays—Ras PAT activity was assayed by measuring the incorporation of tritiated palmitate. [^3H]palmitoyl-CoA substrate was synthesized from [^3H]palmitic acid (NEN) and Coenzyme A using acyl-CoA synthetase (Sigma) and purified as described (Taylor et al., 1990). The PAT assay (25 μl of final volume) was performed by adding 1.5 μg of GST-Ras(HV)CCaaX(2 μM) to GST-Erf4p/FLAG-Erf2p GSH beads in 1 mM DTT, 100 mM MES (pH 6.3). The reaction was started by the addition of 1 μl of [^3H]palmitoyl-CoA (0.5 μM), incubated for 15 min at 30° C., and terminated by the addition of 5 μl of a 5× solution of SDS gel loading buffer without DTT. Heat inactivation was performed by boiling (100° C., 15 min) the GSH beads containing GST-Erf4p/FLAG-Erf2p prior to the addition of substrates. The assays were analyzed by SDS-PAGE using Bis-Tris gels, pH 6.4 (Nu-PAGE®), and subjected to fluorography as described (Mitchell et al., 1994). Quantitation of Ras PAT activity was done by excising Ras protein bands from the gel, solubilizing them in Soluene S-350 (Packard), and counting in a scintillation counter.
The lipid substrate specificity of Ras PAT was investigated by adding increasing amounts of unlabeled acyl-CoA competitors to the radioactive Ras PAT reaction. […] Decanoyl (C10:0) was ineffective at similar concentrations. […] Both saturated and unsaturated fatty acyl-CoAs were effective inhibitors. Little difference was observed between C16:0 and C16:1, or C18:0 and C18:1. The lack of complete acyl-CoA substrate specificity of Ras PAT is consistent with the finding that thioester-linked fatty acids on protein are heterogeneous in vivo (Linder, 2001).
Inhibition of autopalmitoylation or substrate palmitoylation can come about by substrates or substrate analogs. […] The lipid substrate specificity of yeast Erf2p/Erf4p for Ras palmitoylation was investigated by adding increasing amounts of unlabeled acyl-CoA competitors to the radioactive Ras PAT reaction. […] Decanoyl (C10:0) was ineffective at similar concentrations. […] Both saturated and unsaturated fatty acyl-CoAs were effective inhibitors. Little difference was observed between C16:0 and C16:1, or C18:0 and C18:1. The lack of complete acyl-CoA substrate specificity of Ras PAT is consistent with the finding that thioester-linked fatty acids on protein are heterogeneous in vivo (Linder, 2001). […]

[2] = molecular target: T2, Erf2p/Erf4p complex (Saccharomyces cerevisiae, UniProt Q06551); test: Autopalmitoylation of Erf2p, microtiter plate assay with [3H]palmitoyl CoA; format: biochemical, yeast; settings: 2-bromopalmitate 16, 63 or 250 μM; 30 minutes at 25 °C; no substrate
T2 construct: FLAG (N); made in house
T2 sequence (Q06551 1-359): T1 sequence (Q06551 1-359)
T2 sequence (P41912 1-237 partner): T1 sequence (P41912 1-237 partner)
Method: FIG. 19—Inhibition of autopalmitoylation of Erf2p. Partially purified […]/GST-Erf4p (2.7 nM) was bound to the well of a GSH coated microtiter plate. The complex was incubated in reaction buffer (122 mM NaCl, 183 mM Tris HCl pH 7.8, 0.6 mM DTT and 0.035% Triton X-100) (registered trademark of Union Carbide Chemicals and Plastics Co., Inc. for a compound of formula C14H22O(C2H4O)n (CAS No. 9002-93-1); hereinafter referred to as “Triton X-100”))in the presence or absence of 2-bromopalmitate (16 .μ.M, 63 .μ.M or 250 .μ.M). The autopalmitoylation reaction was initiated by addition of 5 .μ.l of 3 .μ.M [^ 3H]palmitoyl CoA and the reaction was incubated for 30 minutes at 25 ° C. The wells were washed (3 × 200 .μ.l 20 mM phosphate pH 6 with 1% Triton X-100) and 3 × 200 .μ.l 25% ipa in water. Finally, wash with 2 × 200 .μ.l 20 mM phosphate pH 6 with 150 mM NaCl. The wells were counted in scintillation fluid.
The inventors tested whether 2-BP inhibits autopalmitoylation of yeast Erf2p.

[3] = test system: PAT; settings: reported by Webb et al., 2000; cited from earlier work

- effectiveness as competitor of the radioactive Ras PAT reaction (in words) [1]: ineffective
SMILES: CCCCCCCCCC(=O)SCCNC(=O)CCNC(=O)[C@H](O)C(C)(C)COP(=O)(O)OP(=O)(O)OC[C@H]1O[C@@H](n2cnc3c(N)ncnc32)[C@H](O)[C@@H]1OP(=O)(O)O [Decanoyl, decanoyl-CoA]

- effectiveness as competitor of the radioactive Ras PAT reaction (in words) [1]: more effective
SMILES: CCCCCCCCCCCCCC(=O)SCCNC(=O)CCNC(=O)[C@H](O)C(C)(C)COP(=O)(O)OP(=O)(O)OC[C@H]1O[C@@H](n2cnc3c(N)ncnc32)[C@H](O)[C@@H]1OP(=O)(O)O [myristoyl, myristoyl-CoA]

- inhibition of Ras PAT activity by unlabeled acyl-CoA competitor ([1]; 8 μM competitor, a 16-fold excess): 90%
SMILES: CCCCCCCCCCCCCCCC(=O)SCCNC(=O)CCNC(=O)[C@H](O)C(C)(C)COP(=O)(O)OP(=O)(O)OC[C@H]1O[C@@H](n2cnc3c(N)ncnc32)[C@H](O)[C@@H]1OP(=O)(O)O [palmitoyl-CoA]

Continued, molecule first:

SMILES: CCCCCCCCCCCCCCC(Br)C(=O)O (stereo not shown) [2-BP, 2-Bromopalmitate]
- inhibition of Erf2/Erf4-dependent PAT activity using yeast Ras2 as a substrate (in words) ([1]; increasing concentrations of 2-BP, GST-Ras(HV)CCaaX 1.33 μM): inhibits
- inhibition of autopalmitoylation of Erf2p (in words) [2]: inhibited in a dose-dependent manner
- inhibition of PAT activity in vivo (in words) [3]: inhibit PAT activity in vivo

SMILES: CCCCCCCCCCCC(=O)SCCNC(=O)CCNC(=O)[C@H](O)C(C)(C)COP(=O)(O)OP(=O)(O)OC[C@H]1O[C@@H](n2cnc3c(N)ncnc32)[C@H](O)[C@@H]1OP(=O)(O)O [Lauryl, lauroyl-CoA]
- effectiveness as competitor of the radioactive Ras PAT reaction (in words) [1]: more effective
